From PMC9574860, “Chemical Toolkit for PARK7: Potent, Selective, and High-Throughput” (Journal of Medicinal Chemistry, 2022) come the findings set out here.

For one experiment, the system named is DUBs. Briefly: DUB activity profiling in HEK293T cell lysate with general DUB probe Rho-Ub-PA. It is filed as biochemical. Conditions: compound 5 μM 1 h 37 °C, then Rho-Ub-PA 30 min, Figure S5. Here is the method: Due to the structural similarity of PARK7 inhibitor JYQ-88 and UCHL1 inhibitor 8RK64 and the fact that many cyanimide-containing compounds have been identified as DUB inhibitors,[35],[37] we investigated the inhibitory potential of JYQ-88 and JYQ-92 toward DUBs. After treating the HEK293T cell lysate with JYQ-88 and JYQ-92, along with UCHL1 inhibitors, 6RK73 and 8RK64 as controls,[38] the remaining activity of DUBs was determined using the general DUB probe Rho-Ub-PA (Figure S5).[39]
Figure S5. Fluorescence labeling of DUBs to investigate their remaining activity by Rh-Ub-
PA after the treatment with PARK7 inhibitor JYQ-88 and probe JYQ-92. UCHL1 inhibitors,
6RK73 and 8RK64, were used as a control. HEK293T cell lysate was treated with 5 μM final
MOPS SDS running buffer (Novex, NuPAGE) and visualized by fluorescence scanning on a
Typhoon FLA 9500 (GE Healthcare Life Sciences) using a Rhodamine channel (λex/em
(1 picture or pasted object on this page, not shown here)

The test system of another experiment is PARK7 and UCHL1. As to the kind of experiment: Labeling of a mixture of purified recombinant UCHL1 and PARK7 with probe 8RK59 (SDS-PAGE, fluorescence scanning). It is filed as binding. Particulars: UCHL1 and PARK7 1 μM each, probe 2 μM, 30 min 37 °C. The procedure:
To determine the labeling efficiency of 8RK59 for both UCHL1 and PARK7, a mixture of equal amounts of purified recombinant UCHL1 and PARK7 (1 μM each) is labeled with 8RK59 (2 μM). […] To gain more insight into the inhibitor binding mode and to guide the design of novel PARK7 inhibitors, the crystal structure of the PARK7–8RK64 complex was solved with 1.21 Å resolution (Figure 2C, Table S1, PDB 7PA2). The structure is obtained as a monomer and compared to its apo structure (PDB 1J42). […] Globally, the inhibitor fits into a groove between two α-helices formed by residues 76–84 and 126–134 (Figure 2C, left panel). The covalent bond between 8RK64 and PARK7 is clearly visible (Figure 2C, middle panel). The cyanimide moiety of the inhibitor reacted to active site Cys106, thereby forming an isothiourea linkage, which is similar to what has been observed for the reaction of cyanamide-based and azanitrile inhibitors with cathepsins.[33],[34] The isothiourea moiety is stabilized by an H-bond between the NH and the carboxylate side chain of the nearby Glu18. Another interaction is found between the thiazole ring amine in the inhibitor and the amide NH2 of the Asn76 side chain. Hydrogen bonding between the carbonyl of the azidoacetyl moiety and the Leu128 backbone carbonyl via a water molecule is also observed. […]

Experiment [1] addresses T1, UCHL1 (Homo sapiens, UniProt P09936).
T1 sequence (P09936 1-223): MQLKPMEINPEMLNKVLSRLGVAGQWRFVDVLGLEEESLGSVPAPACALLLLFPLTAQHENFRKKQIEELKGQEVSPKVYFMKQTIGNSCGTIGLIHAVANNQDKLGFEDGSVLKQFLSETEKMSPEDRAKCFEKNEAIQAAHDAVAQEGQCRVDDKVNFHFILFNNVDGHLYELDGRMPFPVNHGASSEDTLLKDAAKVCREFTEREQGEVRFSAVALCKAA
Briefly: Gel-based competition assay with probe 8RK59, UCHL1 band. It is filed as biochemical. Particulars: compound 2 μM, 1 h; PARK7 and UCHL1 1 μM each; then 8RK59 2 μM 30 min; Figure 3B. Here is the method: To assess the inhibitory potency and selectivity of these compounds toward PARK7 and UCHL1, we performed a gel-based competition assay (Figure 3A).[36] A mixture of equal amounts of PARK7 and UCHL1 (1 μM) was treated with each of the synthesized compounds (2 μM) for 1 h, followed by incubation with fluorescent probe 8RK59 (2 μM) for 30 min. Samples were resolved by SDS-PAGE, and the gel was scanned for fluorescence. Inhibition of PARK7 or UCHL1 is reflected by the disappearance of their corresponding bands (Figure 3B). […] The inhibition potential of JYQ-88 against PARK7 was assessed in a similar assay where PARK7 was incubated with a serial dilution of JYQ-88 before treatment with probe 8RK59 (Figure 3C). A clear inhibition is visible at 0.5 μM, and full inhibition is achieved between 1 and 2 μM. […] The selectivity of JYQ-88 between UCHL1 and PARK7 was further confirmed in a direct competition assay between equal amounts of PARK7 and UCHL1 (Figure 3F). PARK7 inhibition was observed starting from 0.5 μM JYQ-88, whereas inhibition of UCHL1 was only detected at 20 μM. Since JYQ-88 and 8RK64 are enantiomers, we assumed that the interactions with PARK7 should be similar. To investigate how the chiral center influences the selectivity, we solved the crystal structure of the PARK7−JYQ-88 complex with 1.42 Å resolution (Figure 3G, Table S1, PDB 7PA3). The global positioning of the inhibitor in between the two α-helices was similar to that for 8RK64. […] This way, the thiazolo-pyridine part of JYQ-88 is bound in a similar manner as 8RK64 and the earlier observed interactions are largely the same. The formation of the isothiourea moiety, stabilized by the interaction with Glu18, and the interaction between the thiazole amine and the amide NH2 of the Asn76 side chain are still present. However, the interaction between the azidoacetyl carbonyl with the Leu128 backbone carbonyl can no longer be observed due to the rotation of the azidoacetyl moiety. The Lys132 residue also seems to have rotated (compared to Figure 2C).
The assay was performed in Tris buffer as described above.

The target of experiment [2] is T1, UCHL1. As to the kind of experiment: UCHL1 activity assay (Ub-Rho-Morpholine or Ub-AMC substrate). It is filed as biochemical. Particulars: UCHL1 1 nM, 1 h preincubation; Figure 3E; read-out: UCHL1 IC50. The procedure:
The assay was performed in a buffer containing 50 mM Tris·HCl, 100 mM NaCl at pH 7.5, 2.0 mM cysteine, 1 mg/mL 3-[(3-cholamidopropyl)dimethylammonio]propanesulfonic acid (CHAPS), and 0.5 mg/mL bovine serum albumin and conducted in a 384-well plate (Corning 3820) with a reaction volume 20 μL in triplicate. The compounds were dissolved in DMSO as 10, 1, and 0.1 mM stock solutions and were transferred to obtain a 12-point serial dilution of 0.05 to 200 μM. Next, UCHL1 (15 μL, final concentration of 1 nM) was dispensed with a Biotek MultiFlowFX liquid dispenser and incubated for 1 h, followed by dispensing the substrate Ub-Rho-Morpholine or Ub-AMC (5 μL, final concentration of 400 nM). The FI signal was monitored with a BMG Labtech PHERAstar plate reader (λex/em 487/535 nm or λex/em 350/450 nm) for 1 h. N-Ethylmaleimide (NEM, 10 mM) was used as a positive control (100% inhibition), and DMSO was used as a negative control (0% inhibition). All samples were normalized to the positive and negative controls and plotted against the inhibitor concentrations (in μM) using the built-in equation “[inhibitor] vs response – variable slope (four parameters), least-squares fit” with constraints “Bottom = 0” and “Top = 100” in GraphPad Prism 9.0.1 software to obtain the IC50 values.

Experiment [3] has as its target T2, PARK7 (Homo sapiens, UniProt Q99497).
T2 sequence (Q99497 1-189): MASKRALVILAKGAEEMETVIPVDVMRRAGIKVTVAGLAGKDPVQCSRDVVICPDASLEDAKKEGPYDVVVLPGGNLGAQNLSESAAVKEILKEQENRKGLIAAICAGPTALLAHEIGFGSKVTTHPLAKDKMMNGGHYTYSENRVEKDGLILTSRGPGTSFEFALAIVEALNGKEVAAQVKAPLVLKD
Briefly: DiFMUAc PARK7 activity assay. It counts as biochemical. Also noted: GST (N, cleaved yes); made in house; host or cells: E. coli BL21(DE3) Rosetta2. Conditions: PARK7 0.1 μM, 2 h preincubation, DiFMUAc 300 μM; for inhibition at 12.5 µM: 12.5 µM compound, read-out: DiFMuAc assay %Inhibiton (12.5 µM); for inhibition at 37.5 µM: 37.5 µM compound, read-out: DiFMuAc assay %Inhibiton (37.5 µM); for inhibition at 100 µM: 100 µM compound, read-out: DiFMuAc assay %Inhibiton (100 µM). The procedure:
Compounds were transferred using a Labcyte Echo550 acoustic dispenser to obtain a 12-point serial dilution of 0.001 to 100 μM. Next, PARK7 (15 μL, final concentration of 0.1 μM) was dispensed with a Biotek MultiFlowFX liquid dispenser and incubated for 1 h, followed by dispensing the substrate DiFMUAc (5 μL, final concentration of 300 μM). The fluorescence intensity (FI) signal was monitored with a BMG Labtech PHERAstar plate reader (λex/em 350/450 nm) for 1 h.
The validation was performed in the PBS buffer with a reaction volume of 20 μL per well in triplicate. […] Next, PARK7 (15 μL, final concentration 0.1 μM) was dispensed with a Biotek MultiFlowFX liquid dispenser and incubated for 2 h, followed by dispensing the substrate DiFMUAc (5 μL, final concentration 300 μM). The FI signal was monitored with a BMG Labtech PHERAstar plate reader (λex/em 350/450 nm) for 1 h. The increase of FI signal compared with reference controls was used to calculate the remaining enzyme activity. The inhibition percentage of these 22 compounds was plotted as a heatmap using GraphPad Prism 9.0.1 software. Color gradients indicate inhibition percentage, no inhibiton (white) and full inhibition (blue).

Experiment [4] concerns the target T2, PARK7. Briefly: FP assay with Rhodamine110 probe JYQ-107 (IC50 and hit validation). It is filed as binding. Particulars: PARK7 0.2 μM, 1 h preincubation, JYQ-107 20 nM; for inhibition at 12.5 µM: 12.5 µM compound, read-out: FP assay %Inhibiton (12.5 µM); for inhibition at 37.5 µM: 37.5 µM compound, read-out: FP assay %Inhibiton (37.5 µM); for inhibition at 100 µM: 100 µM compound, read-out: FP assay %Inhibiton (100 µM). Also noted: GST (N, cleaved yes); made in house; host or cells: E. coli BL21(DE3) Rosetta2.

Experiment [5] has as its target T2, PARK7. As to the kind of experiment: Gel-based competition assay in HEK293T cell lysate with probe JYQ-92. It is filed as biochemical. The arrangement: GST (N, cleaved yes); made in house; host or cells: E. coli BL21(DE3) Rosetta2. Particulars: fragment 0.1–50 μM 2 h 37 °C, then JYQ-92 1 μM 30 min, Figure 6E. From the text: We next assessed whether we could measure the inhibitory activity of an inhibitor against PARK7 in a cell lysate using JYQ-92 to label the remaining activity of PARK7. […] The disappearance of the labeling band is a measure for inhibition.

Consider `N#CN1CC[C@H](C(=O)Nc2ncc(N3CCOCC3)s2)C1` [6RK73, reference compound], for which the “Effect on remaining DUB activity (Rho-Ub-PA labeled bands)” value in the experiment on DUBs is given as “disappearance of the UCHL1 band”.
With `CC1=CC(C)=[N+]2C1=C(CCCCc1cn(CC(=O)N3CCc4nc(NC(=O)[C@H]5CCN(C#N)C5)sc4C3)nn1)c1c(C)cc(C)n1[B-]2(F)F` [8RK59], in the experiment on PARK7 and UCHL1, the “Labeling of PARK7 and UCHL1 by probe” value is “nearly equal extent”.
With `N#CN1CC[C@H](C(=O)Nc2nc3c(s2)CN(C(=O)CN=[N+]=[N-])CC3)C1` [8RK64, reference compound], the “Inhibition of UCHL1 (disappearance of 8RK59-labeled band)” value at UCHL1 [1] was “fully inhibit”. For the same compound, the half-inhibitory concentration (IC50) at UCHL1 [2] is 230 nM. In addition, the “Effect on remaining DUB activity (Rho-Ub-PA labeled bands)” value with DUBs is on record as “disappearance of the UCHL1 band”.
`CCC(C)c1ccc(NC(=O)CCl)cc1` (stereo not shown) [Z56886389]: on PARK7 [3], the inhibition at 12.5 µM amounted to 95.8%, the inhibition at 37.5 µM came to 95.2% and the inhibition at 100 µM turned out to be 97.1%. Further, on PARK7 [4], the inhibition at 12.5 µM worked out at 100%, the inhibition at 37.5 µM came to 100% and the inhibition at 100 µM amounted to 100%. For the same compound, the “Ability to inhibit PARK7 in a cell lysate” value on PARK7 [5] is reported as “confirmed”.
As for `O=C(O)c1csc(C(=O)CCl)c1` [Z763366298], on PARK7 [3], the inhibition at 12.5 µM was 97.9%, the inhibition at 37.5 µM amounted to 97.6% and the inhibition at 100 µM came out at 97.3%. Also, at PARK7 [4], the inhibition at 12.5 µM is 100%, the inhibition at 37.5 µM turned out to be 100% and the inhibition at 100 µM was 100%. For the same compound, the “Ability to inhibit PARK7 in a cell lysate” value on PARK7 [5] was “confirmed”.

The IC50 is the concentration at which inhibition is half-maximal.
